Reference: US8501753B2, “Useful pharmaceutical salts of 7-[(3R, 4R)-3-Hydroxy-4-hydroxymethyl-pyrrolidin-1-ylmethyl]-3, 5-dihydro-pyrrolo [3, 2-D] pyrimidin-4-one” (BioCryst Pharmaceuticals, Inc., priority 2009, dated 2013)

Experiment: Water sorption/desorption by dynamic vapor sorption (DVS)
Format: physicochemical
Details: water sorption/desorption chamber
Excerpt: Table 4 provides a summary of other solid state data collected for the monohydrate salts of compound 1 described in Examples 33-39. The temperature at which the salts dehydrated per DSC is shown in column 2. The percent weight loss as determined by TGA is shown in column 3; the weight loss approximated theoretical weight loss.

Compound | Weight gain from 0 to 20% RH from DVS | Weight gain from 0 to 90% RH from DVS
O.O.O=C(O)CC(O)C(=O)O.O=c1[nH]cnc2c(CN3CC(O)C(CO)C3)c[nH]c12.O=c1[nH]cnc2c(CN3CC(O)C(CO)C3)c[nH]c12 [Hemi-L-malate] | 0.87 | 5.68
O.O.O=C(O)CCC(=O)O.O=c1[nH]cnc2c(CN3CC(O)C(CO)C3)c[nH]c12.O=c1[nH]cnc2c(CN3CC(O)C(CO)C3)c[nH]c12 (stereo not shown) [Hemisuccinate] | 5.44 | 6.04
